{"source": "paper PMC8400955", "about": "(Pharmaceuticals, 2021)", "type_in_all_cases": "in vitro ADME", "key": {"[1]": {"target": "T1, CYP1A2 (Homo sapiens, UniProt P05177)", "T1 sequence (P05177 1-516)": "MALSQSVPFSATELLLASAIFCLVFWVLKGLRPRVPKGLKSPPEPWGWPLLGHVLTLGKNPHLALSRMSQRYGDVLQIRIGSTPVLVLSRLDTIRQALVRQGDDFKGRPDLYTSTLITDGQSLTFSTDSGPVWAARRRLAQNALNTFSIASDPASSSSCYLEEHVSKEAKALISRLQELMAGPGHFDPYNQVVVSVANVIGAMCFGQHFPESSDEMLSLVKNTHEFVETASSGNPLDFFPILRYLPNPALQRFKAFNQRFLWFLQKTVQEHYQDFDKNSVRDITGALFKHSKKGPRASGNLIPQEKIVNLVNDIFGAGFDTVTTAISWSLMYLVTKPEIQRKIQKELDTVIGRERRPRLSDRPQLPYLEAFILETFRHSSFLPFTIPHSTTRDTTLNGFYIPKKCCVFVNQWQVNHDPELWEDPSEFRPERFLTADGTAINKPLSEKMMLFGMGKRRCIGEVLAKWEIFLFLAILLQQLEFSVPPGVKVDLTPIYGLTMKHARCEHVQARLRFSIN", "test": "CYP inhibition in human liver microsomes, CYP1A2", "conditions": "HLM, marker substrate Phenacetin", "experimental": ". The inhibition of CYP2B6 and 3A4 (when midazolam was used as the substrate) by ZB716 was not observed. The inhibitory potential of ZB716 on human CYP enzyme activities appears relatively low.\nThe final concentrations of ZB716 in the incubation system were 0, 0.05, 0.15, 0.5, 1.5, 5, and 15 µM (final organic solvent concentration ≤ 1%). […] . […] The concentrations of the isoform-specific metabolites derived from marker substrates were measured by UPLC–MS/MS. The IC50 values were calculated from the percentages of the rate of the metabolite formation relative to non-inhibited controls vs. the concentrations of ZB716 or positive control inhibitors. All incubations were performed in triplicate. The mean of the enzyme activity (% of non-inhibited control) for each concentration was plotted against the log inhibitor concentration, and fitted to an IC50 curve."}, "[2]": {"tested_on": "CYP3A4", "test": "CYP induction (enzyme activity) in cryopreserved human hepatocytes, CYP3A4", "conditions": "for fold induction at 72 h, 0.15 µM / fold induction at 72 h, 1.5 µM / fold induction at 72 h, 5 µM / fold induction at 72 h, 15 µM: human, plated cryopreserved human hepatocytes"}, "[3]": {"test": "Stability in incubation medium only", "conditions": "1 μM", "experimental": "Hepatocytes of humans (#X008001), dogs (#M00205), rats (#M00005), and mice (#M005052) were purchased from BioIVT, NY, USA. Monkey hepatocytes were procured from RILD, Shanghai, China. The metabolic stability of ZB716 in human, monkey, dog, rat and mouse hepatocytes was investigated by incubating ZB716 with human, monkey, dog, rat, and mouse hepatocytes (0.5 × 10^6 cells/mL), or with incubation medium only.\nparent disappearance vs. incubation time curve.\nScaled-up Clint = kV/N × Scaling Factor\nmetabolite formed during the reaction."}}}
{"smiles": "C[C@]12CC[C@@H]3c4ccc(B(O)O)cc4C[C@@H](CCCCCCCCC[S+]([O-])CCCC(F)(F)C(F)(F)F)[C@H]3[C@@H]1CC[C@@H]2O", "note": "(stereo partly drawn) [ZB716, fulvestrant-3-boronic acid]", "values": [{"measurement": "IC50", "setting": "[1]", "value": "> 15", "unit": "µM"}, {"measurement": "Percent of Control", "setting": "[2]; donor one, 0.15 µM", "value": "−4.55", "unit": "%"}, {"measurement": "Percent of Control", "setting": "[2]; donor one, 1.5 µM", "value": "−7.08", "unit": "%"}, {"measurement": "Percent of Control", "setting": "[2]; donor one, 5 µM", "value": 4.85, "unit": "%"}, {"measurement": "Percent of Control", "setting": "[2]; donor one, 15 µM", "value": 9.95, "unit": "%"}, {"measurement": "Percent of Control", "setting": "[2]; donor three, 0.15 µM", "value": "−5.29", "unit": "%"}, {"measurement": "Percent of Control", "setting": "[2]; donor three, 1.5 µM", "value": "−2.34", "unit": "%"}, {"measurement": "Percent of Control", "setting": "[2]; donor three, 5 µM", "value": "−6.62", "unit": "%"}, {"measurement": "Percent of Control", "setting": "[2]; donor three, 15 µM", "value": "−9.26", "unit": "%"}, {"measurement": "Percent of Control", "setting": "[2]; donor two, 0.15 µM", "value": "−2.26", "unit": "%"}, {"measurement": "Percent of Control", "setting": "[2]; donor two, 1.5 µM", "value": 4.83, "unit": "%"}, {"measurement": "Percent of Control", "setting": "[2]; donor two, 5 µM", "value": 22.4, "unit": "%"}, {"measurement": "Percent of Control", "setting": "[2]; donor two, 15 µM", "value": 21.5, "unit": "%"}, {"measurement": "fold induction at 72 h, 0.15 µM", "setting": "[2]; donor one, 0.15 µM", "value": "0.774 ± 0.078"}, {"measurement": "fold induction at 72 h, 1.5 µM", "setting": "[2]; donor one, 1.5 µM", "value": "0.649 ± 0.085"}, {"measurement": "fold induction at 72 h, 5 µM", "setting": "[2]; donor one, 5 µM", "value": "1.24 ± 0.18"}, {"measurement": "fold induction at 72 h, 15 µM", "setting": "[2]; donor one, 15 µM", "value": "1.49 ± 0.21"}, {"measurement": "fold induction at 72 h, 0.15 µM", "setting": "[2]; donor three, 0.15 µM", "value": "0.61 ± 0.043"}, {"measurement": "fold induction at 72 h, 1.5 µM", "setting": "[2]; donor three, 1.5 µM", "value": "0.828 ± 0.082"}, {"measurement": "fold induction at 72 h, 5 µM", "setting": "[2]; donor three, 5 µM", "value": "0.513 ± 0.081"}, {"measurement": "fold induction at 72 h, 15 µM", "setting": "[2]; donor three, 15 µM", "value": "0.318 ± 0.005"}, {"measurement": "fold induction at 72 h, 0.15 µM", "setting": "[2]; donor two, 0.15 µM", "value": "0.797 ± 0.1"}, {"measurement": "fold induction at 72 h, 1.5 µM", "setting": "[2]; donor two, 1.5 µM", "value": "1.43 ± 0.14"}, {"measurement": "fold induction at 72 h, 5 µM", "setting": "[2]; donor two, 5 µM", "value": "3.01 ± 0.33"}, {"measurement": "fold induction at 72 h, 15 µM", "setting": "[2]; donor two, 15 µM", "value": "2.92 ± 0.25"}, {"measurement": "Estimated In Vitro t1/2", "setting": "[3]", "value": "∞"}, {"measurement": "Remaining at 120 min", "setting": "[3]", "value": 100, "unit": "%"}]}
